Here are results for two compounds from patent US20200054587A1, “METHODS AND MATERIALS FOR REDUCING SCARRING ASSOCIATED WITH ARTHROFIBROSIS OR TENDON INJURY” (Mayo Foundation for Medical Education and Research, priority 2018, published 2020).

Each structure is given as a SMILES string. Like-named read-outs stand apart in the source and are kept apart here.

For data set [1] the following is noted: cited from earlier work.
The subject of another data set is ACTA2. Briefly: qPCR of alpha smooth muscle actin gene in posterior capsule tissue, rabbit knee arthrofibrosis model. Conditions: rabbit posterior capsule tissue at 24 weeks, FIG. 3B. Type of data set: in vivo. How it is done: (§1) All rabbits underwent luxation (hyperextension) and arthrodesis (fixation) of the operative knee. […] After eight weeks, the arthrodesis was reversed. Rabbits were allowed to roam free in individual spaces (1 m^2) for the entire 24 week duration. Angles of passive extension of operative and contralateral, non-operative limbs were measured at 8, 10, 16, and 24 weeks, using a validated dynamic load cell device. Rabbits were sacrificed at 24 weeks and samples of the posterior capsule were taking from the operative and contralateral, non-operative knee. Data from mRNA extraction and qPCR were obtained to analyze expression of alpha-1 collagen (COL1A1, COL2A1 and COL5A1) and alpha smooth muscle actin (ACTA2), all of which are involved in fibrosis.

The next data set deals with knee arthrofibrosis. Briefly: Rabbit knee arthrofibrosis model, passive range of motion. Conditions: 50 mg in gel injected into the joint capsule during surgery. It is filed as in vivo. How it is done: as §1
Data set [2] has as its system COL1A1, COL2A1 and COL5A1. Briefly: qPCR of collagen genes in posterior capsule tissue, rabbit knee arthrofibrosis model. Conditions: rabbit posterior capsule tissue at 24 weeks, FIG. 3A. Type of data set: in vivo. How it is done:
as §1
Background: Real-time PCR tracks product formation cycle by cycle.

Another data set has as its system flexor tendon injury. The data set is described as follows: In vivo turkey flexor tendon injury model. Conditions: 50 mg powder applied to repaired tendon, 6 weeks. The source says: Flexor tendon injuries are common and pose a clinical challenge for functional restoration. Postoperative repair rupture and scar formation results in prolonged work disability for patients. […] Twelve male turkeys underwent surgical flexor tendon cut and repair. […] After sacrifice, digits were collected and analyzed for adhesion formation as well as healing at the macrolevel.

The test system of data set [3] is adipose tissue-derived mesenchymal stem cells (aMSC). Briefly: Live/dead cytotoxicity staining (Calcein AM / Ethidium Homdimer-1). Conditions: after initial exposure, absence of any dead-cell staining, FIG. 1B.

For `N=C(N)c1ccc(OCCCCCOc2ccc(C(=N)N)cc2)cc1` [Pentamidine isethionate, 4,4-[1,5-pentanediylbis(oxy)]bis-benzenecarboximidamid], the solubility result in data set [1] (acetone) is reported as “insoluble”; in data set [1] (alcohol), “soluble”; in data set [1] (chloroform), “insoluble”; in data set [1] (ether), “insoluble”; in data set [1] (glycerin) it was “soluble”; in data set [1] (water), “soluble”.
As for `N=C(N)c1ccc(OCCCCCOc2ccc(C(=N)N)cc2)cc1` [pentamidine, 4,4′-[pentane-1,5-diylbis(oxy)]dibenzenecarboximid-amide], the “ACTA2 gene expression vs control tissue” value with ACTA2 is given as “decreased”. For the same compound, the “passive range of motion (ROM), pentamidine vs control rabbits” value is “statistically significant difference” in the data set with knee arthrofibrosis (24 weeks, p=0.0082) and “statistically significant difference” in the data set on knee arthrofibrosis (eight weeks, p=0.0303). Besides, the “collagen (COL1A1, COL2A1 and COL5A1) expression vs control tissue” value in data set [2] is reported as “decreased”. In addition, the “post-operative scar formation (gross anatomy) vs control” value in the data set on flexor tendon injury is listed as “marked reduction”. The “adhesion score, 0 (no adhesion) to 8 (very severe)” value in the data set with flexor tendon injury (all six treated turkeys, FIG. 4) is on record as “significantly reduced”. In data set [3], the “cytotoxic effect (Ethidium Homdimer-1 staining)” value is given as “no cytotoxic effect”.
